Measurements: patent publication US20210228560A1 (Centogene IP GmbH, priority 2011, published 2021)
Substitutions are numbered along the chain they refer to. “Also recorded” adds a separate entry of the source. Where two headings read alike, the source gives them in different places.

Assays:
GLA[A156V] = target: T1, GLA[A156V] (Homo sapiens, UniProt P06280, A156V); type: cell-based; details: untreated = 1.0, FIG. 5A
T1 sequence (P06280 32-429 A156V): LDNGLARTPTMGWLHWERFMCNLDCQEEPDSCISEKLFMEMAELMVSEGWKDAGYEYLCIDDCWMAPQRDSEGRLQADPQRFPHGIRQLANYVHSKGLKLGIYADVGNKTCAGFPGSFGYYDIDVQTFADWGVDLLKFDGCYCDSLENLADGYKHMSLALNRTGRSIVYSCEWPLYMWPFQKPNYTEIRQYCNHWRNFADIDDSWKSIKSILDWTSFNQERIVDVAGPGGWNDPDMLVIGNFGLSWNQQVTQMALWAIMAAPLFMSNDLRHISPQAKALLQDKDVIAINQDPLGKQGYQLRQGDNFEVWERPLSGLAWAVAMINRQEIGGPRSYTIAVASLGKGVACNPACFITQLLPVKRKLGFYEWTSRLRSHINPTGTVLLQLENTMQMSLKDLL

GLA[R301G] = target: T2, GLA[R301G] (Homo sapiens, UniProt P06280, R301G); type: cell-based; details: 20 μM DGJ and 40 μM Ambroxol; untreated = 1.0; FIG. 5B
T2 sequence (P06280 32-429 R301G): T1 sequence (P06280 32-429 A156V) with V125A, R270G

[1] = target: T3, Wild type α-galactosidase A (Replagal®, agalsidase alfa) (Homo sapiens, UniProt P06280); assay: Inhibition of agalsidase alfa (Replagal), cell free; type: biochemical; details: for reduction of the enzyme activity, Ambroxol only: FIG. 8 inlay
T3 construct: purchased Shire Pharmaceuticals Replagal
T3 sequence (P06280 32-429): T1 sequence (P06280 32-429 A156V) with V125A

[2] = target: acid α-glucosidase mutants (Homo sapiens, UniProt P10253, Y575S); type: cell-based; details: NB-DNJ and Ambroxol combination; FIG. 7A
Chain of acid α-glucosidase mutants (Homo sapiens, UniProt P10253, Y575S) (P10253 70-952 Y575S): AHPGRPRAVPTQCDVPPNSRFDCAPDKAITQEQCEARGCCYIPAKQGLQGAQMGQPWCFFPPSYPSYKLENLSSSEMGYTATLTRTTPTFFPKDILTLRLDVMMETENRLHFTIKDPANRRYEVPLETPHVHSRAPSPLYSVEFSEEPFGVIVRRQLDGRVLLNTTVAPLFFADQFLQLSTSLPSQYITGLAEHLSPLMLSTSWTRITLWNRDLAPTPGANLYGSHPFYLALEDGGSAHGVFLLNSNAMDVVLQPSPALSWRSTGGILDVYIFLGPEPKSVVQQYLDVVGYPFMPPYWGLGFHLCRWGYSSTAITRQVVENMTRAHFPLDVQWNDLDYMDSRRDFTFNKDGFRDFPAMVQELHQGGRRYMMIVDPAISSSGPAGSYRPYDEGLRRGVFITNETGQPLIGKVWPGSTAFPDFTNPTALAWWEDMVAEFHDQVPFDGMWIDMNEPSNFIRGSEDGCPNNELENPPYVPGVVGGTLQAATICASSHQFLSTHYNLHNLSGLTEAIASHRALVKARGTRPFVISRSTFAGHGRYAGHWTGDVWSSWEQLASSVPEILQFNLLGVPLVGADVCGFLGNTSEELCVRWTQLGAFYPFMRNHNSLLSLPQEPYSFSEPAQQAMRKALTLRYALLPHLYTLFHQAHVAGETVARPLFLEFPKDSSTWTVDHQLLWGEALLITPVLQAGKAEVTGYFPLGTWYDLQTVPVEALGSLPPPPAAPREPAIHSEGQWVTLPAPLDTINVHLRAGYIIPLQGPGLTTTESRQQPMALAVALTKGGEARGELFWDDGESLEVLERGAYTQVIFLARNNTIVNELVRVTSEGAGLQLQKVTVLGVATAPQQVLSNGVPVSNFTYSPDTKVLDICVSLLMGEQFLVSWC
Procedure: (§1) A bacterial clone containing the full length cDNA of […] (IRATp970C0971D, aligned to accession no. NM_000152.3, GeneBank) was received form ImaGenes GmbH, Berlin, Germany. Amplification was performed with the primers 5′-TAGGAGCTGTCCAGGCCATC-3′ (SEQ ID NO:3) and 5′-GAGAGACTAACACACTCCGC-3′ (SEQ ID NO:4). The PCR was carried out using iProof DNA Polymerase (BioRad). The cDNA was subcloned into pCRII TA TOPO vector (Invitrogen). Prior to ligation, the cDNA insert was incubated with Taq polymerase (Qiagen) to add a poly (A) overhang at the 3′-end for TA-cloning. For expression, the GAA cDNA was ligated into target vector pcDNA3.1/V5-His6 (Invitrogen) using sticky end ligation utilizing unique restriction sites (HindIII, XhoI) offered by both vectors multiple cloning sites.
(§2) Sample preparation was carried out analogously to the α-galactosidase A recordings. As substrate, a 1.3 mg 4-Methylumbelliferyl-α-D-Glukopyranoside/ml solution (in sodium acetate buffer, pH 4.0) was used and 5 μg sample/reaction were added. The reaction was incubated for 60 minutes at 37° C. and stopped with 1M Glycine-NaOH, pH 10.5.

[3] = test system: acid α-glucosidase mutants; type: cell-based
Procedure: as §1, §2

SMILES: Nc1c(Br)cc(Br)cc1CN[C@H]1CC[C@H](O)CC1 [Ambroxol, 2-amino-3,5-dibromo-N-[trans-4-hydroxycyclohexyl]benzylamine]
- increase of GLA[A156V] activity (GLA[A156V]; 8 μM DGJ and 40 μM Ambroxol): 3.8 fold
- increase of GLA[A156V] activity (GLA[A156V]; 20 μM DGJ and 40 μM Ambroxol): up to 8 fold
- increase of GLA[R301G] activity (GLA[R301G]): 4.1 fold
- effect of Ambroxol on the inhibition of WT α-galactosidase A by DGJ ([1]; 40 μM Ambroxol): no effect
- effect of Ambroxol alone on the enzyme in the cell free assay ([1]; cell free): not inhibited; also recorded: neither an inhibitory nor a stimulating effect
- reduction of the enzyme activity, Ambroxol only ([1]; pH 4.5): No reduction
- reduction of the enzyme activity, Ambroxol only ([1]; pH 6.7): No reduction
- responsiveness of mutation Y575S [2]: clear tendency to be responsive only towards the combination
- activity of acid α-glucosidase, Ambroxol in combination with NB-DNJ ([3]; 20 μM NB-DNJ + 40 μM Ambroxol compared to 20 μM NB-DNJ alone, FIG. 7): enhanced
- enzyme activity of mutations Y455F, P545L and L552P, combined treatment ([3]; 20 μM NB-DNJ and 40 μM Ambroxol, FIG. 7A): significantly increased
- activity of mutant acid α-glucosidase, Ambroxol alone ([3]; 40 μM Ambroxol without chaperone): not leading to an enhancement
- activity when additionally treated with Ambroxol ([3]; mutations Y455F, P545L and L552P, compared to NB-DNJ): tendency for higher activities
